This is an account of results in US20070219214A1, “Dual NK2/NK3-antagonists, pharmaceutical compositions comprising them, and processes for their preparation” (Solvay pharmaceuticals GmbH, priority 2006, published 2007).

One assay concerns the target T1, human NK2-receptor (Homo sapiens, UniProt P21452).
T1 sequence (P21452 1-398): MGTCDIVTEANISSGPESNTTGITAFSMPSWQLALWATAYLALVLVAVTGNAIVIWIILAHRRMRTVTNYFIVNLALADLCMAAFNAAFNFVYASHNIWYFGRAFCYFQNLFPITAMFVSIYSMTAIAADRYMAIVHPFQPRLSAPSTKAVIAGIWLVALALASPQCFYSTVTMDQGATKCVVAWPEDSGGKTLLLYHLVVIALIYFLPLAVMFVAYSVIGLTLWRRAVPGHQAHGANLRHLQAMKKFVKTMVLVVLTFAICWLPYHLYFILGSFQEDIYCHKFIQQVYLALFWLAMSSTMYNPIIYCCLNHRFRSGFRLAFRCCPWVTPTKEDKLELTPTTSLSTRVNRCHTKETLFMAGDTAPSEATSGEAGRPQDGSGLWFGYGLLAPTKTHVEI
The experiment in a line: Binding potency of the test substances to NK2-receptors in vitro ([3H]-SR 48968 displacement). The arrangement: expressed in transfected cells; host or cells: CHO cells (membrane preparation). The conditions noted are these: human NK2-receptor in CHO cell membranes, [3H]-SR 48968 (saredutant); average of at least three measurements; read-out: pKi, binding potency to NK2-receptors (converted). The text has this:
2. Determination of the Binding Potency of the Test Substances to NK2-Receptors in Vitro
The affinity of test compounds for NK2-receptors can be determined by measuring the ability of the test compound to displace a radiolabeled ligand from its specific binding site.
(§1) The radiolabel used in this assay is [^3H]-SR 48968 (saredutant). Receptors were obtained from membrane preparations of CHO-cells (Chinese Hamster Ovary cells), in which the human NK2-receptor was stably expressed. Membranes were incubated with [^3H]-saredutant in the absence or presence of test compounds at different concentrations, diluted in a buffer system. Separation of bound radioactivity from free radioactivity was done by filtration through glass fiber filters (Packard GF/B) with several washings with ice-cold buffer solution. Bound radioactivity was measured with a liquid scintillation counter (total binding). Unspecific binding was determined by incubation with an excess (0.1 μmol/l) of unlabeled saredutant. Specific binding is obtained by subtracting the unspecific binding from the total binding.
Radioactivity of the specific binding was plotted against the concentration of the test compound and IC50 values, i.e. the concentration of test compound by which 50% of the radioligand is displaced, were calculated. The inhibition constant (Ki) was calculated according to the Cheng-Prusoff equation, and listed as its negative logarithmic value (pKi). The pKi value describes the potency of a test compound to bind to a receptor.
(§2) The average result of all measurements is listed above.

The target of another assay is T2, human NK3 receptor (Homo sapiens, UniProt P29371).
T2 sequence (P29371 1-465): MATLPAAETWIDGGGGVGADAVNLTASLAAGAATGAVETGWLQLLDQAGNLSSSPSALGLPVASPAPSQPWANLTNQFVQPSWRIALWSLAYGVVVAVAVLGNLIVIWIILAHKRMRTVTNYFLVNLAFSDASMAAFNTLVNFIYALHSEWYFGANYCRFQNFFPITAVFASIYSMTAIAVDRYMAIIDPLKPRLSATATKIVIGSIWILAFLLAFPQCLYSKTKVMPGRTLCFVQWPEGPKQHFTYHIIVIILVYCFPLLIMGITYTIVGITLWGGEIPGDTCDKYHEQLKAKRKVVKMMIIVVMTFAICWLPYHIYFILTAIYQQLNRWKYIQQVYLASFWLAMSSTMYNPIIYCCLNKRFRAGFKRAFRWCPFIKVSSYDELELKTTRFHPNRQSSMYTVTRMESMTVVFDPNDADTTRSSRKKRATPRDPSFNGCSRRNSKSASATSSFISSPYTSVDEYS
Put plainly: Binding potency of the test substances to NK3-receptors in vitro ([3H]-SR 142801 displacement). Set-up: expressed in transfected cells; host or cells: CHO cells (membrane preparation). The conditions noted are these: human NK3-receptor in CHO cell membranes, [3H]-SR 142801 (osanetant), average of at least three measurements; for Ki: read-out: pKi, binding potency to NK3-receptors (converted).
Text: 3. Determination of the Binding Potency of the Test Substances to NK3-Receptors in Vitro
The affinity of test compounds for NK3-receptors can be determined by measuring the ability of the test compound to displace a radiolabeled ligand from its specific binding site.
as §1, with “142801 (osanetant).” for “48968 (saredutant).”, “NK3-receptor” for “NK2-receptor”, “[^3H]-osanetant” for “[^3H]-saredutant”, “(1” for “(0.1”, “osanetant.” for “saredutant.”
Radioactivity of the specific binding was plotted against the concentration of the test compound and IC50 values, i.e. the concentration of test compound by which 50% of the radioligand is displaced, were calculated. The inhibition constant (Ki) was calculated according to the Cheng-Prusoff equation, and listed as its negative logarithmic value (pKi) The pKi value describes the potency of a test compound to bind to a receptor.
as §2

Some results are limits rather than exact numbers.

Regarding `CSc1ncc(C(=O)N(C)CC(CCN2CCC(C(=O)N(C)C)(N3CCCCC3)CC2)c2ccc(Cl)c(Cl)c2)n1Cc1ccccc1` (stereo not drawn) [compound 20], the Ki at human NK2-receptor is 25.1 nM.

`CN(C)C(=O)C1(N2CCCCC2)CCN(CCC(CN(C)C(=O)c2c(-c3ccccc3)oc3ccccc3c2=O)c2ccc(Cl)c(Cl)c2)CC1` (stereo not drawn) [compound 21]: the Ki at human NK3 receptor was 63.1 nM; at human NK2-receptor it was 12.6 nM.

For `CN(C)C(=O)C1(N2CCCCC2)CCN(CCC(CN(C)C(=O)C2CC2)c2ccc(Cl)c(Cl)c2)CC1` (stereo not drawn) [compound 22], the Ki is 50.1 nM at human NK3 receptor and 15.8 nM on human NK2-receptor.

Turning to `CN(C)C(=O)C1(N2CCCCC2)CCN(CCC(CN(C)C(=O)c2ccccc2C(=O)O)c2ccc(Cl)c(Cl)c2)CC1` (stereo not drawn) [compound 25], the Ki is 63.1 nM on human NK3 receptor and 5.01 nM at human NK2-receptor.

For `CN(C)C(=O)C1(N2CCCCC2)CCN(CCC(CN(C)C(=O)c2ccc(OC(F)(F)F)cc2)c2ccc(Cl)c(Cl)c2)CC1` (stereo not drawn) [compound 26], the Ki on human NK3 receptor was 50.1 nM; at human NK2-receptor, 5.01 nM.

For `CN(C)C(=O)C1(N2CCCCC2)CCN(CCC(CN(C)C(=O)c2ccc(-c3ccccc3)cc2)c2ccc(Cl)c(Cl)c2)CC1` (stereo not drawn) [compound 27], the Ki at human NK2-receptor is 15.8 nM.

Take `CN(C)C(=O)C1(N2CCCCC2)CCN(CCC(CN(C)C(=O)CC(c2ccccc2)c2ccccc2)c2ccc(Cl)c(Cl)c2)CC1` (stereo not drawn) [compound 28]: the Ki at human NK2-receptor is 20 nM.

Take `CN(C)C(=O)C1(N2CCCCC2)CCN(CCC(CN(C)C(=O)CCc2ccc(O)cc2)c2ccc(Cl)c(Cl)c2)CC1` (stereo not drawn) [compound 29]: the Ki at human NK3 receptor is 50.1 nM; on human NK2-receptor, 2.51 nM.

Regarding `CN(C)C(=O)C1(N2CCCCC2)CCN(CCC(CN(C)C(=O)c2cccn2C)c2ccc(Cl)c(Cl)c2)CC1` (stereo not drawn) [compound 30], the results for the Ki on human NK3 receptor and on human NK2-receptor were 20 nM and 2.51 nM, respectively.

Take `CN(C)C(=O)C1(N2CCCCC2)CCN(CCC(CN(C)C(=O)c2ccco2)c2ccc(Cl)c(Cl)c2)CC1` (stereo not drawn) [compound 31]: the Ki at human NK3 receptor was 39.8 nM; at human NK2-receptor it was 3.98 nM.

Turning to `CN(C)C(=O)C1(N2CCCCC2)CCN(CCC(CN(C)C(=O)c2ccc3ccccc3c2)c2ccc(Cl)c(Cl)c2)CC1` (stereo not drawn) [compound 32], the results for the Ki on human NK3 receptor and on human NK2-receptor were 39.8 nM and 15.8 nM, respectively.

For the compound `CN(C)C(=O)C1(N2CCCCC2)CCN(CCC(CN(C)C(=O)Cc2ccc(-c3ccccc3)cc2)c2ccc(Cl)c(Cl)c2)CC1` (stereo not drawn) [compound 33], the Ki at human NK3 receptor is 31.6 nM; at human NK2-receptor, 79.4 nM.

For the compound `CN(C)C(=O)C1(N2CCCCC2)CCN(CCC(CN(C)C(=O)c2ccc[nH]2)c2ccc(Cl)c(Cl)c2)CC1` (stereo not drawn) [compound 35], the Ki at human NK2-receptor was 3.16 nM.

With `CN(C)C(=O)C1(N2CCCCC2)CCN(CCC(CN(C)C(=O)c2ccsc2)c2ccc(Cl)c(Cl)c2)CC1` (stereo not drawn) [compound 38], the results for the Ki at human NK3 receptor and at human NK2-receptor were 25.1 nM and 1.58 nM, respectively.

For `CN(C)C(=O)C1(N2CCCCC2)CCN(CCC(CN(C)C(=O)c2cc3ccccc3[nH]2)c2ccc(Cl)c(Cl)c2)CC1` (stereo not drawn) [compound 39], the Ki on human NK3 receptor was 31.6 nM; at human NK2-receptor, 20 nM.

As for `CN(C)C(=O)C1(N2CCCCC2)CCN(CCC(CN(C)C(=O)Cc2c[nH]c3ccccc23)c2ccc(Cl)c(Cl)c2)CC1` (stereo not drawn) [compound 40], the Ki on human NK3 receptor is 63.1 nM; on human NK2-receptor it was 12.6 nM.

As to `CN(C)C(=O)C1(N2CCCCC2)CCN(CCC(CN(C)C(=O)c2ccc3cc[nH]c3c2)c2ccc(Cl)c(Cl)c2)CC1` (stereo not drawn) [compound 41], the Ki at human NK3 receptor was 15.8 nM; at human NK2-receptor it was 3.16 nM.

For the compound `CN(C)C(=O)C1(N2CCCCC2)CCN(CCC(CN(C)C(=O)c2cnccn2)c2ccc(Cl)c(Cl)c2)CC1` (stereo not drawn) [compound 42], the Ki on human NK2-receptor is 15.8 nM.

As for `CN(C)C(=O)C1(N2CCCCC2)CCN(CCC(CN(C)C(=O)c2ccncc2)c2ccc(Cl)c(Cl)c2)CC1` (stereo not drawn) [compound 44], the Ki at human NK3 receptor was 31.6 nM; at human NK2-receptor it was 5.01 nM.

For the compound `CN(C)C(=O)C1(N2CCCCC2)CCN(CCC(CN(C)C(=O)c2cc(=O)c3ccccc3o2)c2ccc(Cl)c(Cl)c2)CC1` (stereo not drawn) [compound 45], the Ki on human NK3 receptor is 12.6 nM; at human NK2-receptor it was 2.51 nM.

With `CN(C)C(=O)C1(N2CCCCC2)CCN(CCC(CN(C)C(=O)c2ccc(S(N)(=O)=O)cc2)c2ccc(Cl)c(Cl)c2)CC1` (stereo not drawn) [compound 46], the Ki was 31.6 nM on human NK3 receptor and 6.31 nM on human NK2-receptor.

With `CN(C)C(=O)C1(N2CCCCC2)CCN(CCC(CN(C)C(=O)c2ccc(Cl)c(S(N)(=O)=O)c2)c2ccc(Cl)c(Cl)c2)CC1` (stereo not drawn) [compound 47], the Ki at human NK3 receptor was 20 nM; at human NK2-receptor, 3.16 nM.

Take `CN(C)C(=O)C1(N2CCCCC2)CCN(CCC(CN(C)C(=O)Cc2ccccn2)c2ccc(Cl)c(Cl)c2)CC1` (stereo not drawn) [compound 49]: the results for the Ki on human NK3 receptor and on human NK2-receptor were 7.94 nM and 10 nM, respectively.

For `CN(C)C(=O)C1(N2CCCCC2)CCN(CCC(CN(C)C(=O)Cc2cccnc2)c2ccc(Cl)c(Cl)c2)CC1` (stereo not drawn) [compound 50], the Ki is 10 nM on human NK3 receptor and 39.8 nM at human NK2-receptor.

Take `CN(C)C(=O)C1(N2CCCCC2)CCN(CCC(CN(C)C(=O)c2ccc(NC(=O)OC(C)(C)C)cc2)c2ccc(Cl)c(Cl)c2)CC1` (stereo not drawn) [compound 54]: the Ki at human NK3 receptor was 6.31 nM.

As for `CN(C)C(=O)C1(N2CCCCC2)CCN(CCC(CN(C)C(=O)Cc2cc(O)nc(O)n2)c2ccc(Cl)c(Cl)c2)CC1` (stereo not drawn) [compound 57], the Ki at human NK3 receptor is 63.1 nM.

Regarding `CN(C)C(=O)C1(N2CCCCC2)CCN(CC[C@H](CN(C)C(=O)C(Cc2ccc(-c3ccccc3)cc2)NC(=O)C(C)(C)C)c2ccc(Cl)c(Cl)c2)CC1` (stereo partly drawn) [compound 60], the “pKi, binding potency to NK3-receptors” value at human NK3 receptor stood at 7.2.

Consider `COc1ccc(-c2ocnc2C(=O)N(C)CC(CCN2CCC(C(=O)N(C)C)(N3CCCCC3)CC2)c2ccc(Cl)c(Cl)c2)cc1` (stereo not drawn) [compound 66], for which the Ki at human NK3 receptor is 20 nM.

Consider `CN(C)C(=O)C1(N2CCCCC2)CCN(CCC(CN(C)C(=O)c2cccc3ccccc23)c2ccc(Cl)c(Cl)c2)CC1` (stereo not drawn) [compound 92], for which the Ki at human NK2-receptor is 20 nM.

As to `CCN(C)C(=O)C1(N2CCCCC2)CCN(CC[C@H](CN(C)C(=O)c2ccccc2)c2ccc(Cl)c(Cl)c2)CC1` [compound 95, 1′-[(3S)-4-[benzoyl(methyl)amino]-3-(3,4-dichlorophenyl)butyl]-N-ethyl-N-methyl-1,4′-bipiperidine-4′-carboxamide], at human NK2-receptor, the Ki is ≤ 10 nM.

As to `CN(C)C(=O)C1CCCCN1C1CCN(CC[C@H](CN(C)C(=O)c2ccccc2)c2ccc(Cl)c(Cl)c2)CC1` (stereo partly drawn) [compound 100, 1′-[(3S)-4-[benzoyl(methyl)amino]-3-(3,4-dichlorophenyl)-butyl]-N,N-dimethyl-1,4′-bipiperidine-2-carboxamide], at human NK2-receptor, the Ki was ≤ 10 nM.

On to `CN(C)C(=O)C1CCCCN1C1CCN(CC[C@H](CN(C)C(=O)c2ccccc2)c2ccc(Cl)c(Cl)c2)CC1` (stereo partly drawn) [compound 100], for which the Ki on human NK2-receptor is 3.16 nM.
